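Tested at 5 concentrations; 48 h exposure; 96-well plates; endpoints linearly interpolated, else capped at highest concentration. TGI: concentration producing complete growth inhibition.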
What was measured:
Assay in all cases: NCI tumour cell line growth inhibition, 48 h
XF 498 CNS = system: XF 498 CNS
U251 CNS = system: U251 CNS
SF-539 CNS = system: SF-539 CNS
CAKI-1 renal = system: CAKI-1 renal
ACHN renal = system: ACHN renal
OVCAR-4 ovarian = system: OVCAR-4 ovarian
SR leukemia = system: SR leukemia
HOP-18 NSCLC = system: HOP-18 NSCLC
MALME-3M melanoma = system: MALME-3M melanoma
SNB-19 CNS = system: SNB-19 CNS
SW-620 colon = system: SW-620 colon
NCI-H23 lung = system: NCI-H23 lung
A549 NSCLC = system: A549 NSCLC
DMS 273 small cell lung = system: DMS 273 small cell lung
786-0 renal = system: 786-0 renal
EKVX NSCLC = system: EKVX NSCLC
KM12 colon = system: KM12 colon
K-562 leukemia = system: K-562 leukemia
SK-MEL-5 melanoma = system: SK-MEL-5 melanoma
TK-10 renal = system: TK-10 renal
MOLT-4 leukemia = system: MOLT-4 leukemia
LOX IMVI melanoma = system: LOX IMVI melanoma
HCT-116 colon = system: HCT-116 colon
RXF-631 renal = system: RXF-631 renal
CCRF-CEM leukemia = system: CCRF-CEM leukemia
OVCAR-5 ovarian = system: OVCAR-5 ovarian
SF-295 CNS = system: SF-295 CNS
SK-MEL-28 melanoma = system: SK-MEL-28 melanoma
UO-31 renal = system: UO-31 renal
LXFL 529 NSCLC = system: LXFL 529 NSCLC
M19-MEL melanoma = system: M19-MEL melanoma
SF-268 CNS = system: SF-268 CNS
HT29 colon = system: HT29 colon
COLO 205 colon = system: COLO 205 colon
UACC-62 melanoma = system: UACC-62 melanoma
UACC-257 melanoma = system: UACC-257 melanoma
KM20L2 colon = system: KM20L2 colon
SK-OV-3 ovarian = system: SK-OV-3 ovarian
NCI-H522 lung = system: NCI-H522 lung
SNB-78 CNS = system: SNB-78 CNS
IGROV1 ovarian = system: IGROV1 ovarian
OVCAR-3 ovarian = system: OVCAR-3 ovarian
NCI-H226 lung = system: NCI-H226 lung
HOP-62 NSCLC = system: HOP-62 NSCLC
OVCAR-8 ovarian = system: OVCAR-8 ovarian
SNB-75 CNS = system: SNB-75 CNS
NCI-H460 lung = system: NCI-H460 lung
DLD-1 colon = system: DLD-1 colon
HL-60(TB) leukemia = system: HL-60(TB) leukemia
RXF 393 renal = system: RXF 393 renal
HCT-15 colon = system: HCT-15 colon
RPMI-8226 leukemia = system: RPMI-8226 leukemia
A498 renal = system: A498 renal
HOP-92 NSCLC = system: HOP-92 NSCLC
HCC-2998 colon = system: HCC-2998 colon
SK-MEL-2 melanoma = system: SK-MEL-2 melanoma
SN12C renal = system: SN12C renal
M14 melanoma = system: M14 melanoma
DMS 114 small cell lung = system: DMS 114 small cell lung

`CCOc1ccc(NC(=O)CC2C(=O)Nc3ccccc3S2=O)cc1` (centres undefined) was tested, and the TGI (XF 498 CNS) was 74.4 µM, the TGI (U251 CNS) was > 75.4 µM and the TGI (SF-539 CNS) was > 100 µM. For the same molecule, the TGI (CAKI-1 renal) was > 92.9 µM, the TGI (ACHN renal) was > 86.7 µM and the TGI (OVCAR-4 ovarian) was > 70.2 µM. The TGI (SR leukemia) was > 88.5 µM, the TGI (HOP-18 NSCLC) was > 100 µM and the TGI (MALME-3M melanoma) was > 100 µM. The TGI (SNB-19 CNS) was > 89.3 µM, the TGI (SW-620 colon) was > 100 µM and the TGI (NCI-H23 lung) was > 100 µM. For the same molecule, the TGI (A549 NSCLC) was > 100 µM, the TGI (DMS 273 small cell lung) was > 100 µM and the TGI (786-0 renal) was > 76.6 µM. The TGI (EKVX NSCLC) was > 46.4 µM, the TGI (KM12 colon) was > 100 µM and the TGI (K-562 leukemia) was > 100 µM. The TGI (SK-MEL-5 melanoma) was > 100 µM, the TGI (TK-10 renal) was > 96.2 µM and the TGI (MOLT-4 leukemia) was > 100 µM. The TGI (LOX IMVI melanoma) was > 100 µM, the TGI (HCT-116 colon) was > 100 µM and the TGI (RXF-631 renal) was > 100 µM. The TGI (CCRF-CEM leukemia) was > 100 µM, the TGI (OVCAR-5 ovarian) was > 100 µM and the TGI (SF-295 CNS) was > 100 µM. The TGI (SK-MEL-28 melanoma) was > 100 µM, the TGI (UO-31 renal) was > 83.1 µM and the TGI (LXFL 529 NSCLC) was > 100 µM. For the same molecule, the TGI (M19-MEL melanoma) was > 100 µM, the TGI (SF-268 CNS) was > 100 µM and the TGI (HT29 colon) was > 100 µM. For the same molecule, the TGI (COLO 205 colon) was > 100 µM, the TGI (UACC-62 melanoma) was > 46.4 µM and the TGI (UACC-257 melanoma) was > 100 µM. For the same molecule, the TGI (KM20L2 colon) was > 46.4 µM, the TGI (SK-OV-3 ovarian) was > 100 µM and the TGI (NCI-H522 lung) was > 100 µM. The TGI (SNB-78 CNS) was > 100 µM, the TGI (IGROV1 ovarian) was > 100 µM and the TGI (OVCAR-3 ovarian) was > 78.7 µM. The TGI (NCI-H226 lung) was > 86.7 µM, the TGI (HOP-62 NSCLC) was > 100 µM and the TGI (OVCAR-8 ovarian) was > 85.8 µM. For the same molecule, the TGI (SNB-75 CNS) was 50.6 µM, the TGI (NCI-H460 lung) was > 100 µM and the TGI (DLD-1 colon) was > 100 µM. For the same molecule, the TGI (HL-60(TB) leukemia) was > 100 µM, the TGI (RXF 393 renal) was 66.9 µM and the TGI (HCT-15 colon) was > 100 µM. For the same molecule, the TGI (RPMI-8226 leukemia) was > 100 µM, the TGI (A498 renal) was > 78.5 µM and the TGI (HOP-92 NSCLC) was > 70.6 µM. The TGI (HCC-2998 colon) was > 100 µM, the TGI (SK-MEL-2 melanoma) was > 100 µM and the TGI (SN12C renal) was > 100 µM. The TGI (M14 melanoma) was > 100 µM.
`C[C@]12CCC3[C@@H](CC[C@@H]4c5nonc5CC[C@]34C)C1CCC2=O` (some centres undefined) showed a TGI (XF 498 CNS) of 44.4 µM, a TGI (U251 CNS) of 32.5 µM and a TGI (SF-539 CNS) of 45.9 µM. For the same molecule, the TGI (CAKI-1 renal) was 95.5 µM, the TGI (ACHN renal) was 77.7 µM and the TGI (OVCAR-4 ovarian) was 84 µM. For the same molecule, the TGI (HOP-18 NSCLC) was > 100 µM, the TGI (MALME-3M melanoma) was 52.6 µM and the TGI (SNB-19 CNS) was > 100 µM. For the same molecule, the TGI (SW-620 colon) was > 100 µM, the TGI (NCI-H23 lung) was 92.5 µM and the TGI (A549 NSCLC) was 92.4 µM. It also gave a TGI (DMS 273 small cell lung) of 47.1 µM, a TGI (786-0 renal) of 64.3 µM and a TGI (EKVX NSCLC) of 83.1 µM. For the same molecule, the TGI (KM12 colon) was 50.2 µM, the TGI (K-562 leukemia) was > 100 µM and the TGI (SK-MEL-5 melanoma) was 31.4 µM. The TGI (TK-10 renal) was > 100 µM, the TGI (MOLT-4 leukemia) was 61 µM and the TGI (LOX IMVI melanoma) was 39.5 µM. The TGI (HCT-116 colon) was 31.7 µM, the TGI (RXF-631 renal) was > 100 µM and the TGI (CCRF-CEM leukemia) was 61.3 µM. For the same molecule, the TGI (OVCAR-5 ovarian) was > 100 µM, the TGI (SF-295 CNS) was 79.3 µM and the TGI (SK-MEL-28 melanoma) was 63.8 µM. For the same molecule, the TGI (UO-31 renal) was 39 µM, the TGI (DMS 114 small cell lung) was 53.9 µM and the TGI (LXFL 529 NSCLC) was 59.8 µM. The TGI (M19-MEL melanoma) was 52.8 µM, the TGI (SF-268 CNS) was > 100 µM and the TGI (HT29 colon) was 41.1 µM. For the same molecule, the TGI (COLO 205 colon) was 33.3 µM, the TGI (UACC-62 melanoma) was 52.3 µM and the TGI (UACC-257 melanoma) was 40.4 µM. For the same molecule, the TGI (KM20L2 colon) was > 100 µM, the TGI (SK-OV-3 ovarian) was > 100 µM and the TGI (NCI-H522 lung) was 50.1 µM. The TGI (SNB-78 CNS) was 99.7 µM, the TGI (IGROV1 ovarian) was > 100 µM and the TGI (OVCAR-3 ovarian) was 40.4 µM. For the same molecule, the TGI (NCI-H226 lung) was 62.7 µM, the TGI (HOP-62 NSCLC) was > 100 µM and the TGI (OVCAR-8 ovarian) was > 100 µM. For the same molecule, the TGI (SNB-75 CNS) was 93.6 µM, the TGI (NCI-H460 lung) was 39.7 µM and the TGI (HL-60(TB) leukemia) was 38.9 µM. The TGI (RXF 393 renal) was 78.3 µM, the TGI (HCT-15 colon) was > 100 µM and the TGI (RPMI-8226 leukemia) was 44 µM. For the same molecule, the TGI (A498 renal) was 68.2 µM, the TGI (HOP-92 NSCLC) was 51.5 µM and the TGI (SK-MEL-2 melanoma) was 56.5 µM. It also gave a TGI (SN12C renal) of 47.3 µM and a TGI (M14 melanoma) of 37 µM.
